What was measured:
[1] = test system: cAMP response element binding protein (CREB); test: CREB phosphorylation in HaCaT keratinocytes, immunofluorescence; assay type: cell-based, human; settings: serum-free 16 hours, 30 minutes post-stimulation, WW 1 μg/ml, CBG 10 μM (FIG. 11A)
Experimental: (§1) In order to examine the underlying mechanism, the inventors next examined whether increased repair and proliferation is facilitated via the CAMP response element binding protein (CREB). First, the inventors utilized human keratinocyte cells (HaCaT). Cells were starved (serum-free) for 16 hours and then administered with Dimethyl sulfoxide (DMSO; carrier/solvent control), White Widow (WW) extract or cannabigerol (CBG). Next, the inventors performed immunofluorescence for activated phosphorylated CREB using specific antibodies.

[2] = test system: NF-kappa-B (p65; NF-κB) transcription factor; test: TNF-α-induced NF-κB (p65) translocation in HaCaT keratinocytes, immunofluorescence; assay type: cell-based, Human; settings: 30 minutes; for translocation of NF-kappa-B (p65) to the nucleus: serum starved 16 hours, extract 1 μg/ml, cannabinoids 10 μM (FIG. 4A)
Experimental: In order to examine the underlying mechanism, the inventors next examined whether improving health of the epidermis in psoriasis is dependent upon the NF-kappa-B (p65; NF-κB) transcription factor. NF-κB transcription factor is known to be active in psoriasis and high expression of its target genes leads to enhanced proliferation and inflammation (Goldminz et al., 2012). Human keratinocyte cells (HaCaT) were utilized. Cells were serum starved for 16 hours and then either non-treated (NTC) or administered with TNF-α along with either DMSO (Ctrl), Infinity (INF) extract, CBN, CBG, or THC at a concentration according to Table 2. Immunofluorescence was next performed for activated NF-κB using specific antibodies. The present data clearly indicate that, in response to TNF-α, the NF-κB (p65) transcription factor translocated to the nucleus.

CREB = CREB phosphorylation in healing wounds in vivo, immunofluorescence; set-up: species or system mice
Description: Thereafter, the inventors examined whether CREB is phosphorylated in healing wounds. The inventors performed full-thickness excisional wounds (as described above) and harvested wounds at 8 days post wound infliction.

[3] = test system: 1 cm^2 whole-thickness dorsal wounds; test: whole-thickness dorsal wound healing and regeneration in mice; assay type: in vivo; settings: for wound healing by single cannabinoids, compared with WW strain: IP every second day, CBG 0.11 mg/kg, THC 3.7 mg/kg (FIGS. 10B-10C)
Experimental: To this end, 1 cm^2 whole-thickness dorsal wounds were inflicted on male or female 8-week-old wildtype (WT; C57BL/6J background) mice (n=at least 3 mice per group) and the wounded mice were treated with 5 mg/kg of each strain via intraperitoneal (IP) injection every two days (FIG. 9D). Dorsal wound coverage was measured by determining wound size (%) relative to the initial wound size.
Next, the inventors sought to understand whether any single cannabinoid component of the WW strain could potentiate the WW-induced phenotypes (FIG. 10A). For this, male and female mice (8-weeks-old) on WT (wild type; C57BL/6J) background were administered IP injections of cannabigerol (CBG; 0.11 mg/kg), tetrahydrocannabinol (THC; 3.7 mg/kg), cannabinol (CBN; 0.155 mg/kg), or cannabichromene (CBC; 0.0375 mg/kg), and dorsal wound was inflicted (n=at least 3 mice per group). Cannabinoid solutions are prepared by dissolving pure cannabinoids in 100% ethanol (EtOH) to a stock concentration of 100 mg/ml. Further dilution was achieved by preparing a 1:1:18 working solution of 100% EtOH:Cremophor:1×PBS. 100 μl was administered via IP injection to each mouse every second day starting from the day of wound infliction.

[4] = test system: pCREB^S133 / ATF1 / PCNA in HaCaT cells; test: western blot analysis of treated HaCaT cells (pCREB, ATF1, PCNA); assay type: cell-based, human; settings: for levels of active pCREB^S133 or ATF1 (western blot): HaCaT treated cells (FIG. 11B)
Experimental: as §1
In order to verify these findings, the inventors next performed western blot analysis of treated cells (as outlined above).

[5] = test system: 5%-Imiquimod (IMQ) model of psoriasis; test: topical 5%-Imiquimod (IMQ) model of psoriasis in mice; assay type: in vivo
Experimental: The therapeutic potentials of five different cannabis strains were determined (namely, Infinity (INF), White Widow (WW), Cannatonic (CNT), Dance Hall (DH), and Green Crack (GC)), utilizing an in vivo setting of skin pathology. For this aim, the topical 5%-Imiquimod (IMQ) model of psoriasis (FIGS. 1A-1B) was employed. In this model, 62.5 mg of IMQ cream is applied topically on depilated dorsal skins of mice (Fits et al., 2009) every second day concurrent with administration of extracts. Extracts were administered at 5 mg/kg dose via intraperitoneal (i.p.) injection.
Examining the cannabinoid constituents of INF, the inventors next applied IMQ and treated mice with either control (vehicle only), the 5 mg/kg INF extract, 1.6 mg/kg CBN, 0.1 mg/kg CBG, 3.7 mg/kg THC, or 0.04 mg/kg CBC (FIG. 3A).
Further, the recruitment of CD3^+ T cells to the epidermis was examined in 5% IMQ-treated skins.

[6] = test system: NF-kappa-B (p65; NF-κB) signaling; test: TNF-α-induced NF-κB (p65) translocation in Blimp1+ sebocytes, immunofluorescence; assay type: cell-based, mouse; settings: serum starved 16 hours, TNF-α (FIGS. 8A-8B)
Experimental: In order to examine the underlying mechanism, the inventors assessed the effects of INF, THC and CBN in acne and whether it is mediated through downregulation of NF-kappa-B (p65; NF-κB) signaling. NFκB transcription factor is known to be active in acne and high expression of its target genes leads to enhanced proliferation and inflammation (Kang et al., 2005). The inventors utilized mouse primary sebaceous gland progenitors (Blimp1^+ sebocytes). Cells were serum starved for 16 hours and then either non-treated (NTC) or administered with TNF-α along with either DMSO (Ctrl), Infinity (INF) extract, CBN or THC (FIGS. 8A-8B). The inventors next performed immunofluorescence for activated NF-κB using specific antibodies. The present data clearly indicate that in response to TNF-α the NF-κB (p65) transcription factor translocates to the nucleus in Blimp1^+ sebocytes.

[7] = test system: tail skin sebaceous glands (SGs); test: DBL-induced acne in mouse tail skin in vivo; set-up: species or system mice; settings: DBL intradermal at tail base every second day for 10 days, treated from day 4; 5 mg/kg INF extract, 1.6 mg/kg CBN
[8] = IMQ-treated mice, 5 mg/kg INF extract, 3.7 mg/kg THC (FIGS. 3B-3D)

CCCCCc1cc(O)c(C/C=C(\C)CCC=C(C)C)c(O)c1 [CBG, cannabigerol]
CREB phosphorylation (pCREB^S133) and translocation to the nucleus [1]: highly phosphorylated
translocation of NF-kappa-B (p65) to the nucleus [2]: had no effect
localisation of activated p-CREB in treated wounds (CREB; CBG-treated wounds (FIG. 11F)): co-expressed with proliferative markers
activated pCREB^S133 in the epidermis adjacent to the wound (CREB; full-thickness excisional wounds, 8 days post wound infliction (FIGS. 11D-11E)): dramatic increase
epidermal invaginations in treated skins, 8 days post wounding ([3]; CBG 0.11 mg/kg IP every second day (FIG. 10D)): considerably more epidermal invaginations
regenerated hair follicles in wounds, 18 days ([3]; CBG 0.11 mg/kg IP every second day (FIGS. 10E-10F)): striking number of regenerated hair follicles
wound healing by single cannabinoids, compared with WW strain [3]: healed comparably to the WW strain
levels of active pCREB^S133 or ATF1 (western blot) [4]: high phosphorylation of CREB and ATF
proliferation as indicated by the proliferation marker PCNA ([4]; HaCaT treated cells (FIG. 11C)): increased proliferation

CCCCCc1cc(O)c2c(c1)OC(C)(C)[C@@H]1CCC(C)=C[C@@H]21 [THC, tetrahydrocannabinol]
decreasing abnormal levels of proliferation [5, 8]: comparable
prevention of overgrowth of the epidermis [5, 8]: comparable
translocation of NF-kappa-B (p65) to the nucleus [2]: strongly inhibited
translocation of NFκB (p65) to the nucleus [6]: strongly inhibited
wound healing by single cannabinoids, compared with WW strain [3]: to some extent
levels of active pCREB^S133 or ATF1 (western blot) [4]: only minimal (if any) effect

CCCCCc1cc(O)c2c(c1)OC(C)(C)c1ccc(C)cc1-2 [CBN, cannabinol]
recruitment of CD3+ T cells to the epidermis ([5]; 5% IMQ-treated skins, harvested 8 days post administration (FIG. 5)): substantially reduced
inhibition of NF-κB (p65) translocation, comparison between treatments (% nuclear NF-κB positive cells) ([2]; 10 μM (FIG. 4B)): best results of inhibition
translocation of NF-kappa-B (p65) to the nucleus [2]: strongly inhibited
translocation of NFκB (p65) to the nucleus [6]: strongly inhibited
levels of active pCREB^S133 or ATF1 (western blot) [4]: only minimal (if any) effect
SG cell hyperproliferation [7]: prevented
sebum over-production [7]: prevented

CCCCCc1cc(O)c2c(c1)OC(C)(CCC=C(C)C)C=C2 (centres unmarked) [CBC, cannabichromene]
levels of active pCREB^S133 or ATF1 (western blot) [4]: only minimal (if any) effect
